According to PubChem BioAssay (NCI):
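48-hour exposure; five concentrations; linearly interpolated endpoints. GI50 is the concentration that inhibits growth by half. TGI marks complete inhibition of growth.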

Assays:
Experiment in all cases: NCI-60 cell line screen, 48 h
MOLT-4 leukemia = test system: MOLT-4 leukemia
DMS 273 small cell lung = test system: DMS 273 small cell lung
KM20L2 colon = test system: KM20L2 colon
XF 498 CNS = test system: XF 498 CNS
SK-MEL-2 melanoma = test system: SK-MEL-2 melanoma
UACC-257 melanoma = test system: UACC-257 melanoma
NCI-H226 lung = test system: NCI-H226 lung
SNB-75 CNS = test system: SNB-75 CNS
TK-10 renal = test system: TK-10 renal
COLO 205 colon = test system: COLO 205 colon

Row | SMILES | TGI (MOLT-4 leukemia) | TGI (DMS 273 small cell lung) | TGI (KM20L2 colon) | TGI (XF 498 CNS) | TGI (SK-MEL-2 melanoma) | TGI (UACC-257 melanoma) | TGI (NCI-H226 lung) | TGI (SNB-75 CNS) | TGI (TK-10 renal) | TGI (COLO 205 colon) | GI50 (MOLT-4 leukemia) | GI50 (SK-MEL-2 melanoma) | GI50 (UACC-257 melanoma) | GI50 (NCI-H226 lung) | GI50 (SNB-75 CNS) | GI50 (TK-10 renal) | GI50 (COLO 205 colon) | GI50 (DMS 273 small cell lung) | GI50 (KM20L2 colon) | GI50 (XF 498 CNS)
1 | Cc1c(N=Cc2ccc(N(CCC#N)CCC#N)cc2)c(=O)n(-c2ccccc2)n1C | > 100 µM | > 100 µM | > 100 µM | > 80.6 µM | > 100 µM | > 100 µM | > 100 µM | 60.1 µM | 62.1 µM | > 100 µM | – | – | – | – | – | – | – | – | – | –
2 | COc1cc(/C=C(\OC(C)=O)c2ccc3c(c2)OCO3)cc(OC)c1OC | 43.4 µM | 33.6 µM | > 100 µM | 27.7 µM | 57.9 µM | 34 µM | 30.7 µM | 46.7 µM | > 100 µM | 51.5 µM | – | – | – | – | – | – | – | – | – | –
3 | CC(=O)OC1Oc2ccccc2-c2oc(=O)c(-c3cc4ccccc4oc3=O)cc21 (stereo not given) | 81.8 µM | – | – | – | > 100 µM | 36.6 µM | 35.4 µM | 34.5 µM | 37.2 µM | > 100 µM | 25.4 µM | 35 µM | 14.1 µM | 17.1 µM | 17.3 µM | 18.3 µM | 35.5 µM | – | – | –
4 | COc1ccc2c(c1)C1(C(=O)N2)C(C#N)=C(c2ccccc2)Nc2c1c(-c1ccccc1)nn2-c1ccccc1 (stereo not given) | 11 µM | – | – | – | 21.8 µM | 31.5 µM | 16.4 µM | 3.43 µM | 7.49 µM | 5.83 µM | 3.37 µM | 6.47 µM | 16 µM | 3.8 µM | 1.39 µM | 2.41 µM | 2.42 µM | – | – | –
5 | O=C(c1ccc(Cl)cc1)c1ccc(OCCSCCCCCCCCCCSCCOc2ccc(C(=O)c3ccc(Cl)cc3)cc2)cc1 | > 100 µM | > 100 µM | > 100 µM | – | > 100 µM | > 100 µM | > 100 µM | > 100 µM | > 100 µM | > 100 µM | – | – | – | – | – | – | – | – | – | –
6 | COc1ccc2c(c1)/C(=C/c1cc(OC)c(OC)c(OC)c1)C(=O)N2C | 7.56 µM | – | – | – | 7.41 µM | > 80.4 µM | > 100 µM | > 21.4 µM | > 31.6 µM | 3.68 µM | 1.89 µM | 3.29 µM | 7.88 µM | 4.85 µM | 2.29 µM | 3.56 µM | 1.83 µM | – | – | –
7 | N#CC1C2CCC3(CC2CCN1C(=O)c1ccccc1)OCCO3 (stereo not given) | > 100 µM | > 100 µM | > 100 µM | > 100 µM | 61.9 µM | > 100 µM | – | > 100 µM | > 100 µM | > 100 µM | – | – | – | – | – | – | – | – | – | –
8 | COc1ccc2c(c1)/C(=N/OC(C)=O)c1c-2c(=O)[nH]c2ccccc12 | 24.6 µM | – | – | – | 29 µM | 34.2 µM | 29.8 µM | 25.9 µM | 58 µM | 31.7 µM | 4.28 µM | 13.6 µM | 17.3 µM | 14.3 µM | 11.1 µM | 15.2 µM | 12.2 µM | – | – | –
9 | NC1CCC(N[C@@H]2C[C@H]2c2ccccc2)CC1 (stereo not given in full) | > 100 µM | – | – | – | > 100 µM | > 100 µM | > 100 µM | > 100 µM | > 100 µM | > 100 µM | 60 µM | > 100 µM | > 100 µM | > 100 µM | 8.89 µM | > 100 µM | 73.4 µM | – | – | –
10 | N#CC1CC2(C(=O)C1=O)c1ccccc1-c1ccccc12 (stereo not given) | > 100 µM | > 100 µM | > 100 µM | – | > 100 µM | > 100 µM | > 100 µM | > 100 µM | > 100 µM | > 100 µM | – | – | – | – | – | – | – | – | – | –
11 | c1ccc(COC2(OCc3ccccc3)CC3OC2C2NN=NC32)cc1 (stereo not given) | 37.9 µM | 53.4 µM | > 100 µM | 35 µM | > 10 µM | 36.2 µM | 39.3 µM | 42.3 µM | – | > 100 µM | – | – | – | – | – | – | – | – | – | –
12 | COC1=C(Br)C(=O)C2=C(C1=O)C1C3=C(C(=O)C=CC3=O)C2c2ccccc21 (stereo not given) | > 100 µM | – | – | – | 61.2 µM | > 100 µM | 46.4 µM | 64.4 µM | 43.5 µM | 44.9 µM | 4.99 µM | 20.6 µM | 38.2 µM | 21 µM | 19.4 µM | 23.8 µM | 12.3 µM | – | – | –
13 | COc1cc2c(c(OC)c1OC)-c1ccc(OC)c(=O)cc1[C@@H](N(C)C=O)CC2 | > 100 µM | > 100 µM | – | > 23 µM | 0.0487 µM | > 100 µM | – | 0.615 µM | > 100 µM | 0.0251 µM | – | – | – | – | – | – | – | – | – | –
14 | CC(=O)/C=C/c1ccc(C)cc1 | > 100 µM | > 100 µM | > 100 µM | – | > 100 µM | > 100 µM | > 100 µM | > 100 µM | > 100 µM | > 100 µM | – | – | – | – | – | – | – | – | – | –
15 | COc1cc(/C=C2\C(=O)Nc3cccc(Cl)c32)cc(OC)c1OC | 1.34 µM | – | – | – | > 100 µM | > 100 µM | > 100 µM | 84 µM | > 100 µM | > 100 µM | 0.142 µM | > 100 µM | > 100 µM | > 100 µM | 21.9 µM | > 100 µM | > 100 µM | – | – | –
16 | C1=Nc2ccccc2C=Nc2ccccc2C=Nc2ccccc2C=Nc2ccccc21.[Cl-].[Pt+2] | 49.3 µM | 55.5 µM | 58 µM | 51.1 µM | – | – | – | – | > 100 µM | 51.4 µM | 14.1 µM | – | – | – | – | 45.7 µM | 17.3 µM | 19 µM | 21 µM | 18.4 µM
17 | COc1cc2c(cc1OCCCCOc1ccc(-c3nc4ccccc4s3)cc1)N=C[C@@H]1CCCN1C2=O | 3.86 µM | – | – | – | 1.83 µM | 7.06 µM | 3.89 µM | 2.63 µM | 5.17 µM | 1.76 µM | 0.924 µM | 0.393 µM | 2.63 µM | 1.71 µM | 1.26 µM | 1.21 µM | 0.655 µM | – | – | –
18 | O=C(/C=C/c1ccccc1Cl)c1ccc(Cl)cc1Cl | 26 µM | 29.6 µM | 28.3 µM | – | – | 29.7 µM | 31.5 µM | 37.4 µM | 31.7 µM | 32.1 µM | – | – | – | – | – | – | – | – | – | –
